Values belong to the molecule of their own block, whether it stands above or below them.
Key:
TNFα = TNFα mRNA in LPS/IFNγ-stimulated primary astrocytes; assay type: cell-based, rat
Protocol: (§1) A 20-mer antisense oligonucleotide of the following sequence (5′-CGCTTGAGCGCAGACATCTT-3′, SEQ ID NO:1) targeted against rat lactosylceramide synthase (GalT-2) were synthesized by Integrated DNA Technology. A scrambled oligonucleotide (5′-CTGATATCGTCGATATCGAT-3′, SEQ ID NO:2) was also synthesized and used as control. Cells were counted and plated a day before transfection and the following day were treated with Oligofectamine (Invitrogen)-oligonucleotide complexes (200 nM oligo) under serum free conditions. 48 h following transfection, the protein levels of GalT-2 were analyzed using polyclonal antibodies raised against rat GalT-2 (Abjent Inc., CA). The transfected cells were stimulated with LPS/IFNγ (1 μg/ml) and levels of nitric oxide were checked 24 h following stimulation. iNOS mRNA and protein levels were checked at 6 h and 24 h, respectively, following stimulation of transfected cells.
(§2) 5 μg total RNA was treated with 2 U DNAse I (bovine pancreas, Sigma) for 15 min at room temperature in 18 μl volume containing 1×PCR buffer and 2 mM MgCl2. It was then inactivated by incubation with 2 μl of 25 mM EDTA at 65° C. for 15 min. 2 μl of random primers were added and annealed to the RNA according to the manufacturer's protocol. cDNA was synthesized in a 50 μl reaction containing 5 μg of total RNA and 50-100 U reverse transcriptase by incubating the tubes at 42° C. for 60 min. […]

IL-1β = IL-1β mRNA in LPS/IFNγ-stimulated primary astrocytes; assay type: cell-based, rat
Protocol: as §1, §2

ERK1/2 [1] = test: ERK1/2 activation (phospho-ERK1/2 immunoblot) in primary astrocytes; assay type: cell-based, rat
Protocol: (§3) For iNOS protein, the cells were washed with cold Tris buffered saline (TBS; 20 mM Trizma base, and 137 mM NaCl, pH 7.5), lysed in 1×SDS sample loading buffer (62.5 mM Trizma base, 2% w/v SDS, 10% glycerol), following sonication and centrifugation at 15,000×g for 5 min, the supernatant was used for the iNOS western immunoblot assay. The protein concentration of samples was determined with the detergent compatible protein assay reagent (Bio-Rad Laboratories, CA) using bovine serum albumin (BSA) as the standard. Sample was boiled for 3 min with 0.1 volumes of 10% β-mercaptoethanol and 0.5% bromophenol blue mix. Fifty μg of total cellular protein was resolved by electrophoresis on 8 or 12% polyacrylamide gels, electro-transferred to polyvinylidene difluoride (PVDF) filter and blocked with Tween 20 containing Tris-buffered saline (TBST; 10 mM Trizma base-pH 7.4, 1% Tween 20, and 150 mM NaCl) with 5% skim milk. After incubation with antiserum against iNOS (BD PharMingen, CA), rat GalT-2 (Abjent Inc., CA), H-Ras (Upstate Biotechnology, CA), GFAP (Santa Cruz Biotech, CA), or phospho-specific ERK1/2 (Cell signaling Tech Inc., MA), or pIκ-B (Signal Transduction), in PVDF buffer for 2 h at room temperature, the filters were washed 3 times with TBST buffer and then incubated with horseradish peroxidase conjugated anti-rabbit or mouse IgG for 1 h. The membranes were detected by autoradiography using ECL-plus (Amersham Pharmacia Biotech) after washing with TBST buffer.

NF-κB = NF-κB DNA binding, electrophoretic mobility shift assay; assay type: cell-based, rat
Protocol: Nuclear extracts from cells (1×10^7 cells) were prepared using a previously published method (Dignam et al., 1983) with slight modifications. Cells were harvested, washed twice with ice-cold TBS, and lysed in 400 μl of buffer A containing 10 mM KCl, 2 mM MgCl2, 0.5 mM dithiothreitol, protease inhibitor cocktail (Sigma), and 0.1% Nonidet P-40 in 10 mM HEPES, pH 7.9 for 10 min on ice. Following centrifugation at 5,000×g for 10 min, the pelleted nuclei were washed with buffer A without Nonidet P-40, and resuspended in 40 μl of buffer B containing 25% (v/v) glycerol, 0.42M NaCl, 1.5 mM MgCl2, 0.2 mM EDTA, 0.5 mM dithiothreitol, and Complete™ protease inhibitor cocktail (Roche) in 20 mM HEPES, pH 7.9 for 30 min on ice. The lysates were centrifuged at 15,000×g for 15 min and the supernatants containing the nuclear proteins were stored at −70° C. until use. Ten μg of nuclear proteins was used for the electrophoretic mobility shift assay for detection of NF-κB DNA binding activities. DNA-protein binding reactions were carried out at room temperature for 20 min in 10 mM Trizma base (pH 7.9), 50 mM NaCl, 5 mM MgCl2, 1 mM EDTA, 1 mM dithiothreitol, 1 μg poly (dI-dC), 5% (v/v) glycerol, and approximately 0.3 pmol of NF-κB probe (Santa Cruz Biotech) labeled with DIG-ddUTP using terminal deoxynucleotidyl transferase (Roche). […]

IκB = test: Phosphorylated IκB immunoblot of cytoplasmic extract; assay type: cell-based, rat; details: LPS/IFNγ
Protocol: as §3, with “After incubation with antiserum against iNOS (BD PharMingen, CA), rat GalT-2 (Abjent Inc., CA), H-Ras (Upstate Biotechnology, CA), GFAP (Santa Cruz Biotech, CA), or phospho-specific ERK1/2 (Cell signaling Tech Inc., MA), or pIκ-B (Signal Transduction), in PVDF buffer for 2 h at room temperature, the filters were washed 3 times with TBST buffer and then incubated with horseradish peroxidase conjugated anti-rabbit or mouse IgG for 1 h.” left out

ERK1/2 [2] = test: ERK1/2 activation at the lesion epicenter following SCI; assay type: in vivo, rat
[3] = LPS/IFNγ-stimulated astrocytes, 48 h after transfection

Molecule: AS GalT-2 oligonucleotides: 20-mer antisense oligonucleotide 5′-CGCTTGAGCGCAGACATCTT-3′, SEQ ID NO:1, against rat lactosylceramide synthase (GalT-2) (antisense CGCTTGAGCGCAGACATCTT; chemistry not given here)
TNFα mRNA expression (TNFα; [3]): suppressed | IL-1β mRNA expression (IL-1β; [3]): suppressed

Molecule: CCCCCCCCCC(=O)NC(CN1CCOCC1)C(O)c1ccccc1.Cl [PDMP, D-threo-1-Phenyl-2-decanoylamino-3-morpholino-1-propanol.HCl]
LPS/IFNγ-induced phosphorylation of ERK1/2 (ERK1/2 [1]; pretreated 0.5 h, LPS/IFNγ 20 min): inhibited | TNFα-induced ERK1/2 phosphorylation (ERK1/2 [1]; pretreated 0.5 h, TNFα 20 min): inhibited | NF-κB DNA binding activity (NF-κB; increasing doses of PDMP, LPS/IFNγ 45 min): inhibited | Phosphorylation of IκB (IκB; in the presence of PDMP): Decreased | Activated ERK1/2, double immunofluorescence (ERK1/2 [2]; 24 h following injury): significantly attenuated | Chronic ERK1/2 activation (immunoblot, pERK/ERK) (ERK1/2 [2]; PDMP 20 mg/kg post-SCI): effectively attenuates

Reversal of PDMP-mediated inhibition of NF-κB DNA binding activity (NF-κB; exogenous LacCer): reversed
Molecule: Lactosylceramide [LacCer]
Reversal of AS-mediated inhibition of TNFα expression (TNFα; exogenous LacCer, LPS/IFNγ): reversed | Reversal of AS-mediated inhibition of IL-1β expression (IL-1β; exogenous LacCer, LPS/IFNγ): reversed | Reversal of LY-mediated inhibition of TNFα-mediated ERK1/2 activation (ERK1/2 [1]; LY 30 μM plus LacCer 10 μM): bypassed | Reversal of PD98059-mediated inhibition of TNFα-induced ERK1/2 activity (ERK1/2 [1]; exogenous LacCer): not | Reversal of PDMP-mediated inhibition of LPS/IFNγ-induced ERK1/2 phosphorylation (ERK1/2 [1]; exogenous LacCer): reversed | Reversal of PDMP-mediated inhibition of TNFα-induced ERK1/2 activity (ERK1/2 [1]; exogenous LacCer): reverse | Levels of phosphorylated IκB when LacCer was added to PDMP (IκB; PDMP plus LacCer): increased

Reference: US20110059909A1, “METHODS FOR TREATING INFLAMMATORY DISORDERS” (priority 2004, published 2011)
